In paper PMC5218480 (PLoS ONE, 2017):

Test system: MV-4-11 cells
Assay: Gene expression microarray analysis (Affymetrix PrimeView) and GSEA
Type: cell-based, human
Set-up: RFU PODN (11730768_x_at) / Fold change /veh PODN (11730768_x_at) / RFU LINC00158 (11744669_a_at) / Fold change /veh LINC00158 (11744669_a_at) / RFU DUSP10 (11751237_a_at) / Fold change /veh DUSP10 (11751237_a_at) / RFU ID3 (11757404_x_at) / Fold change /veh ID3 (11757404_x_at) / RFU PLEKHG5 (11737974_s_at) / Fold change /veh PLEKHG5 (11737974_s_at) / RFU LRRC4B (11730491_at) / Fold change /veh LRRC4B (11730491_at) / RFU GIMAP4 (11747438_a_at) / Fold change /veh GIMAP4 (11747438_a_at) / RFU KRT8 (11758183_x_at) / Fold change /veh KRT8 (11758183_x_at) / RFU CNN1 (11734310_a_at) / Fold change /veh CNN1 (11734310_a_at) / RFU VPS37D (11726825_at) / Fold change /veh VPS37D (11726825_at) / RFU C10orf10 (11716522_x_at) / Fold change /veh C10orf10 (11716522_x_at) / RFU KIR2DL2 /// KIR2DL4 /// KIR2DL5A /// KIR2DL5B /// KIR2DS1 /// KIR2DS2 /// KIR2DS3 /// KIR2DS4 /// KIR3DL3 /// KIR3DL3 /// KIR3DS1 (11738374_at) / Fold change /veh KIR2DL2 /// KIR2DL4 /// KIR2DL5A /// KIR2DL5B /// KIR2DS1 /// KIR2DS2 /// KIR2DS3 /// KIR2DS4 /// KIR3DL3 /// KIR3DL3 /// KIR3DS1 (11738374_at) / RFU C1QL1 (11718748_at) / Fold change /veh C1QL1 (11718748_at) / RFU TMPRSS4 (11747572_a_at) / Fold change /veh TMPRSS4 (11747572_a_at) / RFU HAMP (11756126_x_at) / Fold change /veh HAMP (11756126_x_at) / RFU RNFT2 (11725882_a_at) / Fold change /veh RNFT2 (11725882_a_at) / RFU NR4A2 (11747474_a_at) / Fold change /veh NR4A2 (11747474_a_at) / RFU ABCC12 (11746883_a_at) / Fold change /veh ABCC12 (11746883_a_at) / RFU TMEM136 (11760407_x_at) / Fold change /veh TMEM136 (11760407_x_at) / RFU CLDN22 /// WWC2 (11732394_at) / Fold change /veh CLDN22 /// WWC2 (11732394_at) / RFU HLA-DPB1 (11760878_x_at) / Fold change /veh HLA-DPB1 (11760878_x_at) / RFU SPINT1 (11716480_a_at) / Fold change /veh SPINT1 (11716480_a_at) / RFU GAP43 (11754022_s_at) / Fold change /veh GAP43 (11754022_s_at) / RFU A4GNT (11735810_at) / Fold change /veh A4GNT (11735810_at) / RFU PRB3 (11715151_x_at) / Fold change /veh PRB3 (11715151_x_at) / RFU TUBB4B (11761932_at) / Fold change /veh TUBB4B (11761932_at) / RFU CAPN14 (11732068_a_at) / Fold change /veh CAPN14 (11732068_a_at) / RFU TMCC2 (11721928_a_at) / Fold change /veh TMCC2 (11721928_a_at) / RFU IRGQ (11745062_a_at) / Fold change /veh IRGQ (11745062_a_at) / RFU FAM174B (11720279_a_at) / Fold change /veh FAM174B (11720279_a_at) / RFU TMPRSS4 (11748680_a_at) / Fold change /veh TMPRSS4 (11748680_a_at) / RFU FAM212B (11763350_a_at) / Fold change /veh FAM212B (11763350_a_at) / RFU PLEKHG5 (11743358_a_at) / Fold change /veh PLEKHG5 (11743358_a_at) / RFU ZSCAN30 (11745921_a_at) / Fold change /veh ZSCAN30 (11745921_a_at) / RFU CMKLR1 (11741424_a_at) / Fold change /veh CMKLR1 (11741424_a_at) / RFU LOC101060620 /// MAPK8IP1 (11723275_at) / Fold change /veh LOC101060620 /// MAPK8IP1 (11723275_at) / RFU SPTSSB (11747773_x_at) / Fold change /veh SPTSSB (11747773_x_at) / RFU PRSS12 (11739890_at) / Fold change /veh PRSS12 (11739890_at) / RFU BIN1 (11741810_x_at) / Fold change /veh BIN1 (11741810_x_at) / RFU WNT11 (11732464_a_at) / Fold change /veh WNT11 (11732464_a_at) / RFU C10orf10 (11716521_a_at) / Fold change /veh C10orf10 (11716521_a_at) / RFU C5orf56 (11738089_at) / Fold change /veh C5orf56 (11738089_at) / RFU CYB561 (11721691_x_at) / Fold change /veh CYB561 (11721691_x_at) / RFU ANKRD19P (11752326_a_at) / Fold change /veh ANKRD19P (11752326_a_at) / RFU OR2T12 /// OR2T33 /// OR2T8 (11738714_s_at) / Fold change /veh OR2T12 /// OR2T33 /// OR2T8 (11738714_s_at) / RFU VCAN (11748164_a_at) / Fold change /veh VCAN (11748164_a_at) / RFU JSRP1 (11732532_at) / Fold change /veh JSRP1 (11732532_at) / RFU KRTAP10-11 (11738290_x_at) / Fold change /veh KRTAP10-11 (11738290_x_at) / RFU MYO3A (11730013_a_at) / Fold change /veh MYO3A (11730013_a_at) / RFU EBF3 (11725865_a_at) / Fold change /veh EBF3 (11725865_a_at) / RFU CAMK2N1 (11719241_x_at) / Fold change /veh CAMK2N1 (11719241_x_at) / RFU C5orf56 (11738088_a_at) / Fold change /veh C5orf56 (11738088_a_at) / RFU OLFML3 (11715873_a_at) / Fold change /veh OLFML3 (11715873_a_at) / RFU LOC100653217 /// NTM (11731650_a_at) / Fold change /veh LOC100653217 /// NTM (11731650_a_at) / RFU MAPK11 (11762145_a_at) / Fold change /veh MAPK11 (11762145_a_at) / RFU FIZ1 (11724087_x_at) / Fold change /veh FIZ1 (11724087_x_at) / RFU OASL (11726364_x_at) / Fold change /veh OASL (11726364_x_at) / RFU SOX15 (11748057_x_at) / Fold change /veh SOX15 (11748057_x_at) / RFU CD79A (11719716_a_at) / Fold change /veh CD79A (11719716_a_at) / RFU HIST1H1D (11736915_at) / Fold change /veh HIST1H1D (11736915_at) / RFU CASKIN2 (11723855_a_at) / Fold change /veh CASKIN2 (11723855_a_at) / RFU LOC730098 (11760151_x_at) / Fold change /veh LOC730098 (11760151_x_at) / RFU OR4N2 (11742367_at) / Fold change /veh OR4N2 (11742367_at) / RFU PRRT2 (11749266_a_at) / Fold change /veh PRRT2 (11749266_a_at) / RFU SNX32 (11753110_a_at) / Fold change /veh SNX32 (11753110_a_at) / RFU CDHR5 (11726645_a_at) / Fold change /veh CDHR5 (11726645_a_at) / RFU RCAN1 (11760418_a_at) / Fold change /veh RCAN1 (11760418_a_at) / RFU FAM167A (11723789_a_at) / Fold change /veh FAM167A (11723789_a_at) / RFU FAM26E (11764081_at) / Fold change /veh FAM26E (11764081_at) / RFU ISYNA1 (11749810_s_at) / Fold change /veh ISYNA1 (11749810_s_at) / RFU ACY1 (11761880_at) / Fold change /veh ACY1 (11761880_at) / RFU 11764098_at / Fold change /veh 11764098_at / RFU SAMD14 (11745864_x_at) / Fold change /veh SAMD14 (11745864_x_at) / RFU NPB (11741838_a_at) / Fold change /veh NPB (11741838_a_at) / RFU TMPRSS6 (11731388_a_at) / Fold change /veh TMPRSS6 (11731388_a_at) / RFU KRTAP10-2 (11738614_at) / Fold change /veh KRTAP10-2 (11738614_at) / RFU ARHGAP8 /// PRR5-ARHGAP8 (11727945_x_at) / Fold change /veh ARHGAP8 /// PRR5-ARHGAP8 (11727945_x_at) / RFU KRTAP5-7 /// NADSYN1 (11734609_at) / Fold change /veh KRTAP5-7 /// NADSYN1 (11734609_at) / RFU RASL12 (11751679_a_at) / Fold change /veh RASL12 (11751679_a_at) / RFU CDKN2B (11736163_a_at) / Fold change /veh CDKN2B (11736163_a_at) / RFU PRF1 (11729649_at) / Fold change /veh PRF1 (11729649_at) / RFU, ZNF638 /// ZNF638-IT1 / Fold change vs veh, ZNF638 /// ZNF638-IT1 / RFU, PANK3 / Fold change vs veh, PANK3 / RFU, SH3YL1 / Fold change vs veh, SH3YL1 / RFU, ZEB2 / Fold change vs veh, ZEB2 / RFU, NRIP1 / Fold change vs veh, NRIP1 / RFU, PTTG1IP / Fold change vs veh, PTTG1IP / RFU, CAPN2 / Fold change vs veh, CAPN2 / RFU, MED14 / Fold change vs veh, MED14 / RFU, SNORA58 / Fold change vs veh, SNORA58 / RFU, C1orf63 / Fold change vs veh, C1orf63 / RFU, LRRFIP1 / Fold change vs veh, LRRFIP1 / RFU, NDUFAF7 / Fold change vs veh, NDUFAF7 / RFU, SLC12A2 / Fold change vs veh, SLC12A2 / RFU, IBTK / Fold change vs veh, IBTK / RFU, ESF1 / Fold change vs veh, ESF1 / Fold change vs veh, TMEM50B / RFU, TAOK1 / Fold change vs veh, TAOK1 / RFU, ACBD3 / Fold change vs veh, ACBD3 / RFU, TMA16 / Fold change vs veh, TMA16 / RFU, RWDD3 / Fold change vs veh, RWDD3 / RFU, BCAT1 / Fold change vs veh, BCAT1 / RFU, EDEM3 / Fold change vs veh, EDEM3 / RFU, TMEM33 / Fold change vs veh, TMEM33 / RFU, WDR75 / Fold change vs veh, WDR75 / RFU, AHCTF1 / Fold change vs veh, AHCTF1 / RFU, TFRC / Fold change vs veh, TFRC / RFU, ZDHHC17 / Fold change vs veh, ZDHHC17 / RFU, NOM1 / Fold change vs veh, NOM1 / RFU, ARL8B / Fold change vs veh, ARL8B / RFU, ZBTB11 / Fold change vs veh, ZBTB11 / RFU, TAMM41 / Fold change vs veh, TAMM41 / RFU, KIAA1704 /// LOC100996395 / Fold change vs veh, KIAA1704 /// LOC100996395 / RFU, ING1 / Fold change vs veh, ING1 / RFU, TRMT61B / Fold change vs veh, TRMT61B / RFU, FUBP3 / Fold change vs veh, FUBP3 / RFU, TP53 / Fold change vs veh, TP53 / RFU, TNKS2 / Fold change vs veh, TNKS2 / RFU, ZFP14 / Fold change vs veh, ZFP14 / RFU, ACTR2 / Fold change vs veh, ACTR2 / RFU, PPP3R1 / Fold change vs veh, PPP3R1 / RFU, PIK3R1 / Fold change vs veh, PIK3R1 / RFU, HNRNPA1 / Fold change vs veh, HNRNPA1 / RFU, RNF170 / Fold change vs veh, RNF170 / RFU, ZNF28 / Fold change vs veh, ZNF28 / RFU, RNGTT / Fold change vs veh, RNGTT / RFU, OGT / Fold change vs veh, OGT / RFU, BRD1 / Fold change vs veh, BRD1 / RFU, MARS / Fold change vs veh, MARS / RFU, ZNF655 / Fold change vs veh, ZNF655 / RFU, FAHD1 / Fold change vs veh, FAHD1 / RFU, BDP1 / Fold change vs veh, BDP1 / RFU, LRRCC1 / Fold change vs veh, LRRCC1 / RFU, ARID1A / Fold change vs veh, ARID1A / RFU, ZNF146 / Fold change vs veh, ZNF146 / RFU, ZNF330 / Fold change vs veh, ZNF330 / RFU, GPN3 / Fold change vs veh, GPN3 / RFU, C9orf123 / Fold change vs veh, C9orf123 / RFU, N4BP2L2 / Fold change vs veh, N4BP2L2 / RFU, ARFIP1 / Fold change vs veh, ARFIP1 / RFU, FAM179B / Fold change vs veh, FAM179B / RFU, BCL10 / Fold change vs veh, BCL10 / RFU, UHRF1BP1L / Fold change vs veh, UHRF1BP1L / RFU, BET1 / Fold change vs veh, BET1 / RFU, CNOT2 / Fold change vs veh, CNOT2 / RFU, ZNF268 / Fold change vs veh, ZNF268 / Fold change vs veh, ZNF507 / RFU, DGCR2 / Fold change vs veh, DGCR2 / RFU, WDSUB1 / Fold change vs veh, WDSUB1 / Fold change vs veh, HSP90B1 /// MIR3652 / RFU, ADSS / Fold change vs veh, ADSS / RFU, GK / Fold change vs veh, GK / RFU, ZNF148 / Fold change vs veh, ZNF148 / RFU, TAF9 / Fold change vs veh, TAF9 / RFU, SLC1A5 / Fold change vs veh, SLC1A5 / RFU, SLMO2 / Fold change vs veh, SLMO2 / RFU, ABCC4 / Fold change vs veh, ABCC4 / RFU, LOC101060439 /// RAP1B / Fold change vs veh, LOC101060439 /// RAP1B / RFU, RFX7 / Fold change vs veh, RFX7 / RFU, GTPBP10 / Fold change vs veh, GTPBP10 / RFU, CNEP1R1 / Fold change vs veh, CNEP1R1 / RFU, BIVM-ERCC5 /// ERCC5 / Fold change vs veh, BIVM-ERCC5 /// ERCC5 / RFU, ILF3 / Fold change vs veh, ILF3 / RFU 11762660_at / Fold change /veh 11762660_at / RFU VCAN (11757783_s_at) / Fold change /veh VCAN (11757783_s_at) / RFU DDX43 (11728927_at) / Fold change /veh DDX43 (11728927_at) / RFU KRT8 (11758188_x_at) / Fold change /veh KRT8 (11758188_x_at) / RFU NKD1 (11759106_at) / Fold change /veh NKD1 (11759106_at) / RFU SRD5A1 (11742802_a_at) / Fold change /veh SRD5A1 (11742802_a_at) / RFU TPSAB1 /// TPSB2 (11721975_s_at) / Fold change /veh TPSAB1 /// TPSB2 (11721975_s_at) / RFU GSTM3 (11746129_a_at) / Fold change /veh GSTM3 (11746129_a_at) / RFU IL23R (11737362_x_at) / Fold change /veh IL23R (11737362_x_at) / RFU TMEM51 (11727254_a_at) / Fold change /veh TMEM51 (11727254_a_at) / RFU PIWIL2 (11732686_x_at) / Fold change /veh PIWIL2 (11732686_x_at) / RFU ORM1 (11744905_x_at) / Fold change /veh ORM1 (11744905_x_at) / RFU CCDC152 (11743942_at) / Fold change /veh CCDC152 (11743942_at) / RFU ECM1 (11717891_a_at) / Fold change /veh ECM1 (11717891_a_at) / RFU IL23R (11748794_a_at) / Fold change /veh IL23R (11748794_a_at) / RFU TNFAIP8L3 (11732012_x_at) / Fold change /veh TNFAIP8L3 (11732012_x_at) / RFU MBOAT4 (11741988_at) / Fold change /veh MBOAT4 (11741988_at) / RFU 11764193_at / Fold change /veh 11764193_at / RFU TMEM53 (11763286_at) / Fold change /veh TMEM53 (11763286_at) / RFU MAGEB2 (11727129_at) / Fold change /veh MAGEB2 (11727129_at) / RFU TMEM200A (11744735_a_at) / Fold change /veh TMEM200A (11744735_a_at) / RFU CCDC152 (11751479_a_at) / Fold change /veh CCDC152 (11751479_a_at) / RFU FAM211A (11726209_a_at) / Fold change /veh FAM211A (11726209_a_at) / RFU RGS16 (11746705_a_at) / Fold change /veh RGS16 (11746705_a_at) / RFU VCAN (11755009_s_at) / Fold change /veh VCAN (11755009_s_at) / RFU RHOB (11743442_s_at) / Fold change /veh RHOB (11743442_s_at) / RFU RGS16 (11720943_a_at) / Fold change /veh RGS16 (11720943_a_at) / RFU RGS16 (11720944_at) / Fold change /veh RGS16 (11720944_at) / RFU, VPS4B / Fold change vs veh, VPS4B / RFU, CREB1 / Fold change vs veh, CREB1 / RFU, DNAJC13 / Fold change vs veh, DNAJC13 / RFU, GNAQ / Fold change vs veh, GNAQ / RFU, CDK5R1 / Fold change vs veh, CDK5R1 / RFU, ZRANB3 / Fold change vs veh, ZRANB3 / RFU, CUL4A / Fold change vs veh, CUL4A / RFU, CCNY / Fold change vs veh, CCNY / RFU, UFL1 / Fold change vs veh, UFL1 / RFU, COG3 / Fold change vs veh, COG3 / RFU, DIAPH2 / Fold change vs veh, DIAPH2 / RFU, SKA2 / Fold change vs veh, SKA2 / RFU, AFF3 / Fold change vs veh, AFF3 / RFU, LMF1 / Fold change vs veh, LMF1 / RFU, IPO11 / Fold change vs veh, IPO11 / RFU, DFFB / Fold change vs veh, DFFB / RFU, FOXP1 / Fold change vs veh, FOXP1 / RFU, CARD8 / Fold change vs veh, CARD8 / RFU, STRN3 / Fold change vs veh, STRN3 / RFU, ADK / Fold change vs veh, ADK / RFU, RASSF2 / Fold change vs veh, RASSF2 / RFU, WIPF1 / Fold change vs veh, WIPF1 / RFU, LARP1B / Fold change vs veh, LARP1B / RFU, RASA1 / Fold change vs veh, RASA1 / RFU, RB1 / Fold change vs veh, RB1 / RFU, PPFIA1 / Fold change vs veh, PPFIA1 / RFU, MAT2A / Fold change vs veh, MAT2A / RFU, CCT5 / Fold change vs veh, CCT5 / RFU, WDR92 / Fold change vs veh, WDR92 / RFU, CUX1 / Fold change vs veh, CUX1 / RFU, TTC7A / Fold change vs veh, TTC7A / RFU, TMEM135 / Fold change vs veh, TMEM135 / RFU, DEPTOR / Fold change vs veh, DEPTOR / RFU, CPM / Fold change vs veh, CPM / RFU, DNAJB6 / Fold change vs veh, DNAJB6 / RFU, CACNA2D3 / Fold change vs veh, CACNA2D3 / RFU, DTX4 / Fold change vs veh, DTX4 / RFU, TFCP2 / Fold change vs veh, TFCP2 / RFU, GMCL1 /// GMCL1P1 / Fold change vs veh, GMCL1 /// GMCL1P1 / RFU, AEBP2 / Fold change vs veh, AEBP2 / RFU, SNHG1 /// SNORD22 /// SNORD25 /// SNORD26 /// SNORD27 /// SNORD28 /// SNORD29 /// SNORD31 / Fold change vs veh, SNHG1 /// SNORD22 /// SNORD25 /// SNORD26 /// SNORD27 /// SNORD28 /// SNORD29 /// SNORD31 / Fold change (Aza/veh), C12orf56 (ProbeSet 11735607_a_at) / Fold change (ACY-1035/veh), C12orf56 (ProbeSet 11735607_a_at) / Fold change (Aza/veh), FGFR1OP (ProbeSet 11751329_s_at) / Fold change (ACY-1035/veh), FGFR1OP (ProbeSet 11751329_s_at) / Fold change (Aza/veh), VPS36 (ProbeSet 11739960_a_at) / Fold change (ACY-1035/veh), VPS36 (ProbeSet 11739960_a_at) / RFU SYPL1 (11715823_x_at) / Fold change /veh SYPL1 (11715823_x_at) / RFU IGFBP7 (11715501_s_at) / Fold change /veh IGFBP7 (11715501_s_at) / RFU REEP3 (11722064_at) / Fold change /veh REEP3 (11722064_at) / RFU IGLL1 (11728026_x_at) / Fold change /veh IGLL1 (11728026_x_at): dose or concentration left out as unconfirmed
Details: ProbeSet 11755425_a_at; LIST B

Nc1ncn([C@@H]2O[C@H](CO)[C@@H](O)[C@H]2O)c(=O)n1 [azacitidine]
RFU, FAM179B: 66.28 RFU
